In paper PMC7660650, “Chemical Starting Matter for HNF4α Ligand Discovery and Chemogenomics” (International Journal of Molecular Sciences, 2020):

What follows are molecules tested against T1, Gal4-HNF4α (human HNF4α LBD) (Homo sapiens, UniProt P41235) (assay: Hybrid Gal4-HNF4α reporter gene assay in transiently transfected HEK293T cells). Settings: not given.
T1 construct: uniprot entry: P41235-1, residues 142-377; expressed in transfected cells; host or cells: HEK293T
T1 sequence (P41235 142-377): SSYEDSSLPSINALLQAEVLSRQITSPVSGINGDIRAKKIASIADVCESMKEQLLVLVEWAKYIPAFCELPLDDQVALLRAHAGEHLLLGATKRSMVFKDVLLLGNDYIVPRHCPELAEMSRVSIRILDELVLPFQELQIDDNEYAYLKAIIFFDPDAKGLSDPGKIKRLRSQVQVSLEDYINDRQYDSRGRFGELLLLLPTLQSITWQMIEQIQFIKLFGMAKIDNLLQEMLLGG
Format: cell-based

In the case of `c1ccc(C2COCCN2)cc1` (centres unmarked) [Prestw-Frag-3705, C1COCC(N1)c1ccccc1], the “HNF4a-screening_activity_(mean_of_n=2)” value was 0.9945.

Same assay, conditions: Table S1, primary screening, 50 µM

Going from `COC(=O)CN1CCc2sccc2C1` [Prestw-Frag-3371, COC(=O)CN1CCc2sccc2C1] to `O=C1CN(Cc2ccccc2)CCN1` [Prestw-Frag-3459, O=C1CN(Cc2ccccc2)CCN1], the “HNF4a-screening_activity_(mean_of_n=2)” value falls from 1.101 to 1.076.

Going from `CCOC(=O)c1cccnc1` [Prestw-Frag-3382, CCOC(=O)c1cccnc1] to `c1cncc(CN2CCNCC2)c1` [Prestw-Frag-3722, C(N1CCNCC1)c1cccnc1], the “HNF4a-screening_activity_(mean_of_n=2)” value falls from 1.112 to 0.9979.

First: O=C(CCCN1CCNCC1)c1ccc(F)cc1 [Prestw-Frag-3426, Fc1ccc(cc1)C(=O)CCCN1CCNCC1]
Second: CN1CCN(CCCC(=O)c2ccc(F)cc2)CC1 [Prestw-Frag-3692, CN1CCN(CCCC(=O)c2ccc(F)cc2)CC1]
The “HNF4a-screening_activity_(mean_of_n=2)” value of the first is lower: 1.191 for the first, 1.385 for the second.

Compared with `CNCCN(C)C(c1ccccc1)c1ccccc1` [Prestw-Frag-3452, CNCCN(C)C(c1ccccc1)c1ccccc1], `O=C(O)C(c1ccccc1)c1ccccc1` [Prestw-Frag-3711, OC(=O)C(c1ccccc1)c1ccccc1] is lower in “HNF4a-screening_activity_(mean_of_n=2)” value: 1.151 for the first, 1.082 for the second.

Going from `COc1ccc(CCN)cc1OC` [Prestw-Frag-3454, COc1ccc(CCN)cc1OC] to `NCCc1ccc(F)cc1F` [Prestw-Frag-3746, NCCc1ccc(F)cc1F], the “HNF4a-screening_activity_(mean_of_n=2)” value rises from 1.113 to 1.162.

Compared with `Oc1ccc(Cc2ccccc2)cc1` [Prestw-Frag-3455, Oc1ccc(Cc2ccccc2)cc1], `NCCOCc1ccccc1` [Prestw-Frag-3749, NCCOCc1ccccc1] is higher in “HNF4a-screening_activity_(mean_of_n=2)” value: 0.7887 for the first, 0.8708 for the second.

Going from `O=C1CNCCN1` [Prestw-Frag-3458, O=C1CNCCN1] to `O=C1CNCN1` [Prestw-Frag-3718, O=C1CNCN1], the “HNF4a-screening_activity_(mean_of_n=2)” value falls from 1.246 to 1.053.

Compared with `CN1CCNCC1=O` [Prestw-Frag-3460, CN1CCNCC1=O], `NC(=O)N1CCNCC1` [Prestw-Frag-3723, NC(=O)N1CCNCC1] is lower in “HNF4a-screening_activity_(mean_of_n=2)” value: 1.233 for the first, 1.067 for the second.

Compared with `Cn1cc(CC(=O)O)c2ccccc21` [Prestw-Frag-3461, Cn1cc(CC(O)=O)c2ccccc12], `Cn1c(N)nc2ccccc21` [Prestw-Frag-3740, Cn1c(N)nc2ccccc12] is higher in “HNF4a-screening_activity_(mean_of_n=2)” value: 1.168 for the first, 1.19 for the second.

Compared with `NC1CCc2ccccc21` (centres unmarked) [Prestw-Frag-3462, NC1CCc2ccccc12], `c1ccc2c(c1)CCNCC2` [Prestw-Frag-3750, C1Cc2ccccc2CCN1] is lower in “HNF4a-screening_activity_(mean_of_n=2)” value: 1.151 for the first, 1.099 for the second.

First: O=C1COCCN1 [Prestw-Frag-3463, O=C1COCCN1]
Second: COc1cc2c(cc1OC)CC(=O)NCC2 [Prestw-Frag-3698, COc1cc2CCNC(=O)Cc2cc1OC]
The “HNF4a-screening_activity_(mean_of_n=2)” value of the first is higher: 1.252 for the first, 1.019 for the second.

Going from `Cn1ccc(=O)[nH]1` [Prestw-Frag-3664, Cn1ccc(=O)[nH]1] to `Cc1cc(=O)n(-c2ccccc2)[nH]1` [Prestw-Frag-3742, Cc1cc(=O)n([nH]1)-c1ccccc1], the “HNF4a-screening_activity_(mean_of_n=2)” value falls from 1.182 to 0.8727.

Compared with `O=C1Cc2cc(F)ccc2N1` [Prestw-Frag-3667, Fc1ccc2NC(=O)Cc2c1], `O=C1COc2cc(O)ccc21` [Prestw-Frag-3703, Oc1ccc2C(=O)COc2c1] is higher in “HNF4a-screening_activity_(mean_of_n=2)” value: 0.8142 for the first, 1.217 for the second.

Going from `O=C(O)CC1CCCCC1` [Prestw-Frag-3668, OC(=O)CC1CCCCC1] to `N#CCC(=O)N1CCCCC1` [Prestw-Frag-3730, O=C(CC#N)N1CCCCC1], the “HNF4a-screening_activity_(mean_of_n=2)” value rises from 0.9215 to 0.9277.

Going from `C#Cc1cccc(N)c1` [Prestw-Frag-3669, Nc1cccc(c1)C#C] to `Nc1ccc2c(c1)CCCC2` [Prestw-Frag-3682, Nc1ccc2CCCCc2c1], the “HNF4a-screening_activity_(mean_of_n=2)” value falls from 1.159 to 0.958.

Going from `CN1CCN(c2ccc(N)cc2)CC1` [Prestw-Frag-3670, CN1CCN(CC1)c1ccc(N)cc1] to `Fc1ccc(CN2CCNCC2)cc1` [Prestw-Frag-3673, Fc1ccc(CN2CCNCC2)cc1], the “HNF4a-screening_activity_(mean_of_n=2)” value rises from 1.015 to 1.124.

Compared with `CCN1CCCC1CN` (centres unmarked) [Prestw-Frag-3671, CCN1CCCC1CN], `OCC1CCCNC1` (centres unmarked) [Prestw-Frag-3728, OCC1CCCNC1] is lower in “HNF4a-screening_activity_(mean_of_n=2)” value: 1.171 for the first, 1.103 for the second.

First: O=C(c1ccccc1)N1CCNCC1 [Prestw-Frag-3677, O=C(N1CCNCC1)c1ccccc1]
Second: Oc1ccccc1N1CCNCC1 [Prestw-Frag-3738, Oc1ccccc1N1CCNCC1]
The “HNF4a-screening_activity_(mean_of_n=2)” value of the first is lower: 0.9693 for the first, 0.9708 for the second.

Going from `COc1ccc2[nH]cnc2c1` [Prestw-Frag-3678, COc1ccc2[nH]cnc2c1] to `COc1ccc2c(c1)CCC(C(=O)O)C2` (centres unmarked) [Prestw-Frag-3739, COc1ccc2CC(CCc2c1)C(O)=O], the “HNF4a-screening_activity_(mean_of_n=2)” value falls from 0.9895 to 0.6963.

First: Nc1cnc2ccccc2n1 [Prestw-Frag-3679, Nc1cnc2ccccc2n1]
Second: Cc1nc(-c2ccccc2)cs1 [Prestw-Frag-3743, Cc1nc(cs1)-c1ccccc1]
The “HNF4a-screening_activity_(mean_of_n=2)” value of the first is lower: 0.8882 for the first, 1.125 for the second.

Going from `O=C1CC2(CCCC2)CC(=O)N1` [Prestw-Frag-3680, O=C1CC2(CCCC2)CC(=O)N1] to `NC1CCC(=O)NC1=O` (centres unmarked) [Prestw-Frag-3716, NC1CCC(=O)NC1=O], the “HNF4a-screening_activity_(mean_of_n=2)” value rises from 0.8965 to 1.139.

Going from `CC(=O)c1ccc2c(c1)OCO2` [Prestw-Frag-3686, CC(=O)c1ccc2OCOc2c1] to `OCc1ccc2c(c1)OCO2` [Prestw-Frag-3741, OCc1ccc2OCOc2c1], the “HNF4a-screening_activity_(mean_of_n=2)” value rises from 0.9343 to 1.114.

Going from `NCc1ncc[nH]1` [Prestw-Frag-3689, NCc1ncc[nH]1] to `NCc1cscn1` [Prestw-Frag-3747, NCc1cscn1], the “HNF4a-screening_activity_(mean_of_n=2)” value rises from 0.8561 to 0.9617.

Compared with `CNC(=O)c1c(-c2ccccc2)noc1C` [Prestw-Frag-3690, CNC(=O)c1c(C)onc1-c1ccccc1], `O=c1[nH]cncc1-c1ccccc1` [Prestw-Frag-3734, O=c1[nH]cncc1-c1ccccc1] is higher in “HNF4a-screening_activity_(mean_of_n=2)” value: 0.8222 for the first, 1.236 for the second.

Going from `CN(C)CCCC(=O)c1ccc(F)cc1` [Prestw-Frag-3693, CN(C)CCCC(=O)c1ccc(F)cc1] to `CC(C(=O)O)c1cccc(F)c1` (centres unmarked) [Prestw-Frag-3706, CC(C(O)=O)c1cccc(F)c1], the “HNF4a-screening_activity_(mean_of_n=2)” value falls from 1.093 to 1.072.

Compared with `Oc1cccc2[nH]ccc12` [Prestw-Frag-3696, Oc1cccc2[nH]ccc12], `NC1CCc2[nH]c3ccccc3c2C1` (centres unmarked) [Prestw-Frag-3709, NC1CCc2[nH]c3ccccc3c2C1] is higher in “HNF4a-screening_activity_(mean_of_n=2)” value: 0.9739 for the first, 1.209 for the second.

Compared with `CNC(=O)c1c(OC)ccc(Br)c1OC` [Prestw-Frag-3704, CNC(=O)c1c(OC)ccc(Br)c1OC], `CNC(=O)c1cc(Cl)c(N)cc1OC` [Prestw-Frag-3754, CNC(=O)c1cc(Cl)c(N)cc1OC] is lower in “HNF4a-screening_activity_(mean_of_n=2)” value: 1.072 for the first, 1.064 for the second.

First: c1ccc(C2CCCNCC2)cc1 (centres unmarked) [Prestw-Frag-3712, C1CNCCC(C1)c1ccccc1]
Second: c1nc(C2CCNCC2)c[nH]1 [Prestw-Frag-3753, C1CC(CCN1)c1c[nH]cn1]
The “HNF4a-screening_activity_(mean_of_n=2)” value of the first is higher: 1.122 for the first, 0.9547 for the second.

Going from `Oc1ccc2c(c1)CCC2` [Prestw-Frag-3713, Oc1ccc2CCCc2c1] to `c1ccc2c(c1)NCCO2` [Prestw-Frag-3732, C1COc2ccccc2N1], the “HNF4a-screening_activity_(mean_of_n=2)” value rises from 1.011 to 1.144.

Going from `CC(O)(C(=O)O)c1ccccc1` (centres unmarked) [Prestw-Frag-3717, CC(O)(C(O)=O)c1ccccc1] to `CC(C)(CN)c1ccccc1` [Prestw-Frag-3733, CC(C)(CN)c1ccccc1], the “HNF4a-screening_activity_(mean_of_n=2)” value rises from 1.037 to 1.132.

Going from `Cc1n[nH]c(C)c1N` [Prestw-Frag-3724, Cc1n[nH]c(C)c1N] to `Cc1[nH]cnc1CO` [Prestw-Frag-3752, Cc1[nH]cnc1CO], the “HNF4a-screening_activity_(mean_of_n=2)” value rises from 0.9198 to 1.105.

First: FC(F)(F)c1cc[nH]n1 [Prestw-Frag-3726, FC(F)(F)c1cc[nH]n1]
Second: Cc1nc(-c2ccccc2F)cs1 [Prestw-Frag-3745, Cc1nc(cs1)-c1ccccc1F]
The “HNF4a-screening_activity_(mean_of_n=2)” value of the first is lower: 0.9056 for the first, 1.103 for the second.

Going from `OCC1CCNCC1` [Prestw-Frag-3727, OCC1CCNCC1] to `CC(=O)C1CCNCC1` [Prestw-Frag-3756, CC(=O)C1CCNCC1], the “HNF4a-screening_activity_(mean_of_n=2)” value rises from 0.8559 to 0.9377.

Going from `c1cc(N2CCNCC2)ncn1` [Prestw-Frag-3729, C1CN(CCN1)c1ccncn1] to `c1ccc(-n2ccnc2)cc1` [Prestw-Frag-3744, c1cn(cn1)-c1ccccc1], the “HNF4a-screening_activity_(mean_of_n=2)” value falls from 1.017 to 1.014.

Compared with `CCN(CC)C(=O)CC#N` [Prestw-Frag-3731, CCN(CC)C(=O)CC#N], `CC(CO)Nc1ccccc1` (centres unmarked) [Prestw-Frag-3755, CC(CO)Nc1ccccc1] is lower in “HNF4a-screening_activity_(mean_of_n=2)” value: 0.9542 for the first, 0.8925 for the second.

First: NCC1(c2ccccc2)CC1 [Prestw-Frag-3751, NCC1(CC1)c1ccccc1]
Second: c1ccc(-n2cccn2)cc1 [Prestw-Frag-3759, c1cnn(c1)-c1ccccc1]
The “HNF4a-screening_activity_(mean_of_n=2)” value of the first is lower: 0.9761 for the first, 1.212 for the second.

`CC1CCC(=O)O1` (centres unmarked) [Prestw-Frag-3757, CC1CCC(=O)O1] was tested, and the “HNF4a-screening_activity_(mean_of_n=2)” value was 1.285.
